Data taken from patent publication US12428416B2 (California Institute of Technology, priority 2018, dated 2025).
pIC50, pKd: −log10 of the molar value. Like-named read-outs stand apart in the source and are kept apart here.

Experiments:
ERK2 = ERK2 (Homo sapiens, UniProt P28482); test: ERK1 and 2 Enzymatic Inhibition Assay (ERK2); format: biochemical; settings: 10 assay concentrations 2×10^−6 M to 6×10^−11 M, 1% DMSO
Protocol: (§1) ERK1 and 2 Enzymatic Inhibition Assay
(§2) For the Ki determination assay, 200 μM stock solutions of compounds were subjected to a serial, semi-logarithmic dilution using 100% DMSO as a solvent. 10 distinct concentrations were prepared, with a dilution endpoint of 6×10^−9 M in 100% DMSO. 100% DMSO was used as a control. 10 μL from each of the serial dilutions were aliquoted into separate wells of a 96-well plate and 90 μL of water were added to each of those wells. The plate was shaken thoroughly, and 5 μL from each of the plate's wells were transferred into wells of the assay plate. The final volume of wells in the assay plate was 50 μL. All compounds were tested at 10 assay concentrations in the range from 2×10^−6 M to 6×10^−11 M. The final DMSO concentration in the wells of the assay plate was 1% in all cases.

ERK1 = ERK1 (Homo sapiens, UniProt P27361); test: ERK1 and 2 Enzymatic Inhibition Assay (ERK1); format: biochemical; settings: 10 assay concentrations 2×10^−6 M to 6×10^−11 M, 1% DMSO
Protocol: as §1, §2

[1] = tested on: drug-sensitive cell lines of Table 4; test: Cell line growth retardation assay, average over sensitive cohort; format: cell-based, Human; settings: geometric mean of IC50s over sensitive cohort (Table 4), 6 days growth, read-out: AvgSens IC50
Protocol: (§3) Cell Line Growth Retardation Assay
(§4) Cells were seeded at densities of 1,000-5,000 cells per well in 48-well tissue culture plates. After a 24 h rest period, cells were treated with compound at 10 μM, 2 μM, 0.4 μM, 0.08 μM, 0.016 μM, and 0.0032 μM. A group of cells were treated with the vehicle in which the compound was prepared and served as a control. The cells were grown in the presence of compounds for 6 days and were counted on day 0 and day 6. All cell counting was performed using a Synentec Cellavista plate imager. […] Growth inhibition was calculated as a ratio of cell population doublings in the presence of compound versus the absence of compound. […] IC50 values for each compound were calculated by fitting curves to data points from each dose-response assay using the Proc NLIN function in SAS for Windows version 9.2 (SAS Institute, Inc.).
(§5) Designation of Sensitivity and Resistant Cohorts and Calculation of Average IC50 Values
(§6) Human cancer cell lines were grouped as “sensitive” or “resistant” to ERK1 inhibition based on whether their growth was retarded by KO-947 (i.e., 1,5,6,8-tetrahydro-6-(phenylmethyl)-3-(4-pyridinyl)-7H-pyrazolo[4,3-g]quinazolin-7-one) and SCH772984 (i.e., (3R)-1-[2-oxo-2-[4-[4-(2-pyrimidinyl)phenyl]-1-piperazinyl]ethyl]-N-[3-(4-pyridinyl)-1H-indazol-5-yl]-3-pyrrolidinecarboxamide) (data not shown; see Table 4). These sensitive and resistant cohorts were interrogated for response to each compound, and IC50s were calculated for each cell line using the same technique described above. Average IC50s for the sensitive and resistant cohorts were calculated as geometric means of the group.

[2] = tested on: drug-resistant cell lines of Table 4; test: Cell line growth retardation assay, average over resistant cohort; format: cell-based, Human; settings: geometric mean of IC50s over resistant cohort (Table 4), 6 days growth, read-out: AvgRes IC50
Protocol: as §3, §4, §5, §6

ERK2, sequence (P28482 whole entry): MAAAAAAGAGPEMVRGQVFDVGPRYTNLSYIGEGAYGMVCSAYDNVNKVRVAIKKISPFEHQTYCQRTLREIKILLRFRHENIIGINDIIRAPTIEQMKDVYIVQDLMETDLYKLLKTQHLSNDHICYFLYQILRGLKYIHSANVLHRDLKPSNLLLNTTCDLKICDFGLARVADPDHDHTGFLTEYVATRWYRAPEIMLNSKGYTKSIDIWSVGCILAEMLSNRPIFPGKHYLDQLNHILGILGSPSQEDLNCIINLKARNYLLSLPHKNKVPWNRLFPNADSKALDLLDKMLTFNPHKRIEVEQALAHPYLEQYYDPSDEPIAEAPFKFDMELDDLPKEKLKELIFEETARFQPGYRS
ERK1, sequence (P27361 whole entry): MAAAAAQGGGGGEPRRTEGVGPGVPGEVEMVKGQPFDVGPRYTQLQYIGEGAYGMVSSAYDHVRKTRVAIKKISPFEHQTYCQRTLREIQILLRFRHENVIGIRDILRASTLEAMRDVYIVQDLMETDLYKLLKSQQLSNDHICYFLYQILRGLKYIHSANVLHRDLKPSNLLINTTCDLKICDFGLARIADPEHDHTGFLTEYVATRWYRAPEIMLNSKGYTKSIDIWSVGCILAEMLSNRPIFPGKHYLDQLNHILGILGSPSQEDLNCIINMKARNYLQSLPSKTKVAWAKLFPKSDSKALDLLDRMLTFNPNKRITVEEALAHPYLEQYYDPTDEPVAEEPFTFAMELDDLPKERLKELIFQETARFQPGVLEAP

Compound	pKd (ERK2)	pKd (ERK1)	pIC50 ([1]; Homo sapiens, 144 h)	pIC50 ([2]; Homo sapiens, 144 h)	pIC50 [2]	pIC50 [1]
CN(C)CC(NC(=O)c1ncc(-c2c[nH]c3ncc(N4CCOCC4)cc23)cn1)c1ccccc1 (stereo in doubt) [Compound 57, (S)—N-(2-(dimethylamino)-1-phenylethyl)-5-(5-morpholino-1H-pyrrolo[2,3-b]pyridin-3-yl)pyrimidine-2-carboxamide]	< 7.00	< 7.00	< 6.30	< 6.30	–	–
O=C(c1ncc(-c2c[nH]c3ncc(N4CCOCC4)cc23)cn1)N1CCC[C@H]1c1ccccc1 [Compound 19, (S)-(5-(5-morpholino-1H-pyrrolo[2,3-b]pyridin-3-yl)pyrimidin-2-yl)(2-phenylpyrrolidin-1-yl)methanone]	< 7.00	< 7.00	< 6.30	< 6.30	–	–
c1ccc([C@@H]2CN=C(c3ncc(-c4c[nH]c5ncc(N6CCOCC6)cc45)cn3)O2)cc1 [Compound 54, (R)-4-(3-(2-(5-phenyl-4,5-dihydrooxazol-2-yl)pyrimidin-5-yl)-1H-pyrrolo[2,3-b]pyridin-5-yl)morpholine]	–	–	–	–	< 6.30	–
c1ccc([C@H]2CN=C(c3ncc(-c4c[nH]c5ncc(N6CCOCC6)cc45)cn3)O2)cc1 [Compound 55, (S)-4-(3-(2-(5-phenyl-4,5-dihydrooxazol-2-yl)pyrimidin-5-yl)-1H-pyrrolo[2,3-b]pyridin-5-yl)morpholine]	7.00 to 7.96	7.00 to 7.96	< 6.30	< 6.30	–	–
CC(NC(=O)c1ncc(-c2c[nH]c3ncc(N4CCOC(C)(C)C4)cc23)cn1)c1ccccc1 (stereo in doubt) [Compound 38, (R)-5-(5-(2,2-dimethylmorpholino)-1H-pyrrolo[2,3-b]pyridin-3-yl)-N-(1-phenylethyl)pyrimidine-2-carboxamide]	7.00 to 7.96	7.00 to 7.96	< 6.30	< 6.30	–	–
O=C(NCCc1ccccc1)c1ccc(-c2c[nH]c3ncc(N4CCOCC4)cc23)nn1 [Compound 13, 6-(5-morpholino-1H-pyrrolo[2,3-b]pyridin-3-yl)-N-phenethylpyridazine-3-carboxamide]	< 7.00	7.00 to 7.96	< 6.30	< 6.30	–	–
c1ccc([C@H]2CN=C(c3ncc(-c4c[nH]c5ncc(N6CCOCC6)cc45)cn3)N2)cc1 [Compound 15, (S)-4-(3-(2-(5-phenyl-4,5-dihydro-1H-imidazol-2-yl)pyrimidin-5-yl)-1H-pyrrolo[2,3-b]pyridin-5-yl)morpholine]	7.00 to 7.96	7.00 to 7.96	< 6.30	< 6.30	–	–
C[C@H]1N=C(c2ncc(-c3c[nH]c4ncc(N5CCOCC5)cc34)cn2)O[C@H]1c1ccccc1 [Compound 56, 4-(3-(2-((4R,5S)-4-methyl-5-phenyl-4,5-dihydrooxazol-2-yl)pyrimidin-5-yl)-1H-pyrrolo[2,3-b]pyridin-5-yl)morpholine]	7.00 to 7.96	7.00 to 7.96	< 6.30	< 6.30	–	–
C[C@@H](CNC(=O)c1ncc(-c2c[nH]c3ncc(N4CCOCC4)cc23)cn1)c1ccccc1 [Compound 33]	7.00 to 7.96	7.00 to 7.96	–	–	–	–
O=C(Nc1ccccc1)c1ncc(-c2c[nH]c3ncc(N4CCOCC4)cc23)cn1 [Compound 23, 5-(5-morpholino-1H-pyrrolo[2,3-b]pyridin-3-yl)-N-phenylpyrimidine-2-carboxamide]	< 7.00	< 7.00	–	–	–	–
O=C(NCCc1cccc(C(F)(F)F)c1)c1ncc(-c2c[nH]c3ncc(N4CCOCC4)cc23)cn1 [Compound 64, 5-(5-morpholino-1H-pyrrolo[2,3-b]pyridin-3-yl)-N-(3-(trifluoromethyl)phenethyl)pyrimidine-2-carboxamide]	7.00 to 7.96	7.00 to 7.96	–	–	–	–
c1ccc([C@@H]2COC(c3ncc(-c4c[nH]c5ncc(N6CCOCC6)cc45)cn3)=N2)cc1 [Compound 52, (R)-4-(3-(2-(4-phenyl-4,5-dihydrooxazol-2-yl)pyrimidin-5-yl)-1H-pyrrolo[2,3-b]pyridin-5-yl)morpholine]	–	–	–	–	< 6.30	< 6.30
C[C@@H](Cc1ccccc1)NC(=O)c1ncc(-c2c[nH]c3ncc(N4CCOCC4)cc23)cn1 [Compound 30, (S)-5-(5-morpholino-1H-pyrrolo[2,3-b]pyridin-3-yl)-N-(1-phenylpropan-2-yl)pyrimidine-2-carboxamide]	< 7.00	< 7.00	–	–	–	–
O=C(NCCc1cccc(F)c1)c1ncc(-c2c[nH]c3ncc(N4CCOCC4)cc23)cn1 [Compound 63, N-(3-fluorophenethyl)-5-(5-morpholino-1H-pyrrolo[2,3-b]pyridin-3-yl)pyrimidine-2-carboxamide]	7.00 to 7.96	7.00 to 7.96	–	–	–	–
C[C@H](NC(=O)c1ncc(-c2c[nH]c3ncc(N4CCOCC4)cc23)cn1)c1ccccc1C#N [Compound 48, (S)—N-(1-(2-cyanophenyl)ethyl)-5-(5-morpholino-1H-pyrrolo[2,3-b]pyridin-3-yl)pyrimidine-2-carboxamide]	7.00 to 7.96	≥ 8.00	–	–	–	–
C[C@H](NC(=O)c1ncc(-c2c[nH]c3ncc(NCCO)cc23)cn1)c1ccccc1 [Compound 68]	7.00 to 7.96	7.00 to 7.96	–	–	–	–

Continued, in another order:

pKd (ERK2)	pKd (ERK1)	Compound	pIC50 ([1]; Homo sapiens, 144 h)	pIC50 ([2]; Homo sapiens, 144 h)	pIC50 [2]	pIC50 [1]
≥ 8.00	7.00 to 7.96	O=C(NCCc1ccccc1C(F)(F)F)c1ncc(-c2c[nH]c3ncc(N4CCOCC4)cc23)cn1 [Compound 59, 5-(5-morpholino-1H-pyrrolo[2,3-b]pyridin-3-yl)-N-(2-(trifluoromethyl)phenethyl)pyrimidine-2-carboxamide]	–	–	–	–
7.00 to 7.96	7.00 to 7.96	O=C(c1ncc(-c2c[nH]c3ncc(N4CCOCC4)cc23)cn1)N1CCC[C@@H]1c1ccccc1 [Compound 18, (R)-(5-(5-morpholino-1H-pyrrolo[2,3-b]pyridin-3-yl)pyrimidin-2-yl)(2-phenylpyrrolidin-1-yl)methanone]	< 6.30	< 6.30	–	–
≥ 8.00	≥ 8.00	COc1cc(-c2cnc3[nH]cc(-c4cnc(C(=O)NC(C)c5ccccc5)nc4)c3c2)ccn1 (stereo in doubt) [Compound 41, (R)-5-(5-(2-methoxypyridin-4-yl)-1H-pyrrolo[2,3-b]pyridin-3-yl)-N-(1-phenylethyl)pyrimidine-2-carboxamide]	≥ 6.60	< 6.30	–	–
7.00 to 7.96	7.00 to 7.96	CCN1C[C@H](c2ccccc2)N=C1c1ncc(-c2c[nH]c3ncc(N4CCOCC4)cc23)cn1 [Compound 51, (S)-4-(3-(2-(1-ethyl-4-phenyl-4,5-dihydro-1H-imidazol-2-yl)pyrimidin-5-yl)-1H-pyrrolo[2,3-b]pyridin-5-yl)morpholine]	6.30 to 6.60	< 6.30	–	–
≥ 8.00	≥ 8.00	O=C(NCCc1ccccc1Cl)c1ncc(-c2c[nH]c3ncc(N4CCOCC4)cc23)cn1 [Compound 61, N-(2-chlorophenethyl)-5-(5-morpholino-1H-pyrrolo[2,3-b]pyridin-3-yl)pyrimidine-2-carboxamide]	6.30 to 6.60	< 6.30	–	–
≥ 8.00	≥ 8.00	O=C(NCCc1ccccc1F)c1ncc(-c2c[nH]c3ncc(N4CCOCC4)cc23)cn1 [Compound 58, N-(2-fluorophenethyl)-5-(5-morpholino-1H-pyrrolo[2,3-b]pyridin-3-yl)pyrimidine-2-carboxamide]	–	–	–	–
≥ 8.00	≥ 8.00	C[C@H](NC(=O)c1ncc(-c2c[nH]c3ncc(N4CCOCC4)cc23)cn1)c1ccccc1F [Compound 44, (S)—N-(1-(2-fluorophenyl)ethyl)-5-(5-morpholino-1H-pyrrolo[2,3-b]pyridin-3-yl)pyrimidine-2-carboxamide]	≥ 6.60	< 6.30	–	–
≥ 8.00	≥ 8.00	CC(NC(=O)c1ncc(-c2c[nH]c3ncc(N4CC5(COC5)C4)cc23)cn1)c1ccccc1 (stereo in doubt) [Compound 42, (R)-5-(5-(2-oxa-6-azaspiro[3.3]heptan-6-yl)-1H-pyrrolo[2,3-b]pyridin-3-yl)-N-(1-phenylethyl)pyrimidine-2-carboxamide]	< 6.30	< 6.30	–	–
